Assays:
[1] = target: human glucagon receptor (GCGR) (Homo sapiens (Human), UniProt P47871); experiment: Inhibition of 125I-glucagon binding to membranes from HEK293 cells expressing the human glucagon receptor; conditions: membranes of hGluc-1 HEK cells, 125I-glucagon 0.3 nM
Protocol: Inhibition ^125I-Glucagon Binding to Membranes from HEK293 Cells Expressing the Human Glucagon Receptor (GCGR)
Full-length human GCGR (Accession Number: NM000160) subcloned into pcDNA3.1 was stably transfected into HEK293 cells (hGluc-1 HEK) and maintained under G418 selection (500 μg/mL). Cell cultures were maintained in DMEM/F12 media supplemented with 10% FBS and 1% GlutaMax. Membranes were prepared from these cells as follows: cells were harvested from T225 flasks and re-suspended in hypotonic lysis buffer, 50 mM HEPES pH 7.4 supplemented with Complete Protease inhibitors (Boehringer Mannheim, Indianapolis, Ind.). Cells were dounced 20 times on ice and spun at 700×g to remove nuclei and unlysed cells. The resulting pellet was re-suspended in hypotonic lysis buffer and the above step was repeated. Supernatants from the low speed centrifugation were combined and subsequently spun at 100K×g for 1 hr at 4° C. and the resulting pellet was re-suspended in buffer containing 50 mM HEPES pH 7.4 and 10% sucrose and the protein concentration was adjusted at 1 mg/mL as determined in the BCA assay. Membranes were aliquoted and stored at −80° C. The binding assay was performed by a filtration method in a 384 well format. Membranes at a final protein concentration of 6 μg/well were incubated with ^125I-glucagon at 0.3 nM and in the presence of compound for 2 hours at room temperature in a total reaction volume of 40 μL per well. Assay buffer consisted of 50 mM HEPES, pH 7.4, 5 mM MgCl2, 1 mM CaCl2 and 0.2% BSA. 30 μL of the reaction was then transferred to PEI treated filter plates and followed by filter aspiration. Plates were then washed 5× and allowed to dry at room temperature overnight. The next day the bottom of the plate was covered with seal tape and scintillant was added. Total counts retained by the filters were quantified with a Top Count instrument. IC50's were generated by using a non-linear regression macro driven in Excel and converted to K's.

human GCGR = human GCGR (Homo sapiens (Human), UniProt P47871); experiment: Cellular functional assay, cAMP readout (glucagon-stimulated cAMP in HEK293 cells expressing human GCGR); type: cell-based; conditions: hGluc-1 HEK cells
Chain of human GCGR (P47871 26-477): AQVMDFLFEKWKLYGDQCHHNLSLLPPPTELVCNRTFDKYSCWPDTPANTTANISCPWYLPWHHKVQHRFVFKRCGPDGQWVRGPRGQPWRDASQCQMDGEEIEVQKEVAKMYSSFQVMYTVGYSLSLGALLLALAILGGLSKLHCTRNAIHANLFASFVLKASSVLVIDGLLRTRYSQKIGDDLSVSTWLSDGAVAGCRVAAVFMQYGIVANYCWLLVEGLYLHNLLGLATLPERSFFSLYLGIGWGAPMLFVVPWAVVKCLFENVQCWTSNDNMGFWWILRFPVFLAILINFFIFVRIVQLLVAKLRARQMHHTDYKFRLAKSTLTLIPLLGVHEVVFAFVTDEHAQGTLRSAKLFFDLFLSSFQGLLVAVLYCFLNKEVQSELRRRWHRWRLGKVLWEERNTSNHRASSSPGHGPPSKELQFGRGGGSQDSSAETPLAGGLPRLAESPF
Outline: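 HEK293 cells stably transfected with full-length human GCGR were exposed to compound for 30 min before a 5-min challenge with […] (final) glucagon. Readout was TR-FRET (LANCE) cAMP versus standard curve; IC50s fitted by non-linear regression and converted to Ki values.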

[2] = 2 hours room temperature, IC50 converted to Ki, average if tested more than once
[3] = LANCE TR-FRET, IC50 converted to Ki, average if tested more than once
[4] = meta-substituted comparative compounds (Table 3)

Chain of human glucagon receptor (GCGR) (P47871 26-477): as above

SMILES	Ki [1, 2]	Ki (human GCGR; [3])	Ki [1, 4]	Ki (human GCGR; [4])
O=C(O)CCNC(=O)c1ccc(-c2ccccc2CNc2ccc(-c3ccc(Cl)cc3)cc2)cn1 [Compound 2, 3-(5-(2-(((4′-chloro-[1,1′-biphenyl]-4-yl)amino)methyl)phenyl)picolinamido)propanoic acid]	187 nM	510 nM	–	–
O=C(O)CCNC(=O)c1ccc(-c2cc(Cl)ccc2C(=O)Nc2ccc(-c3ccc(F)cc3)cc2)cn1 [Compound 20, 3-(5-(5-chloro-2-((4′-fluoro-[1,1′-biphenyl]-4-yl)carbamoyl)phenyl)picolinamido)propanoic acid]	61.4 nM	158 nM	–	–
O=C(O)CCNC(=O)c1ccc(-c2cc(F)c(F)cc2CNc2ccc(-c3cccc(C(F)(F)F)c3Cl)c(Cl)c2)cn1 [Compound 107, 3-(5-(2-(((2,2′-dichloro-3′-(trifluoromethyl)-[1,1′-biphenyl]-4-yl)amino)methyl)-4,5-difluorophenyl)picolinamido)propanoic acid]	23.7 nM	54.8 nM	–	–
O=C(O)CCNC(=O)c1ccc(-c2cc(C(F)(F)F)ccc2CNc2ccc(-c3ccc(F)cc3Cl)cc2)cn1 [Compound 23, 3-(5-(2-(((2′-chloro-4′-fluoro-[1,1′-biphenyl]-4-yl)amino)methyl)-5-(trifluoromethyl)phenyl)picolinamido)propanoic acid]	26.1 nM	130 nM	–	–
O=C(O)CCNC(=O)c1ccc(-c2cc(C(F)(F)F)cc(Cl)c2CNc2ccc(-c3ccc(Cl)cc3)cc2)cn1 [Compound 67, 3-(5-(3-chloro-2-(((4′-chloro-[1,1′-biphenyl]-4-yl)amino)methyl)-5-(trifluoromethyl)phenyl)picolinamido)propanoic acid]	18.8 nM	12.2 nM	–	–
O=C(O)CCNC(=O)c1ccc(-c2ccccc2CNc2ccc(-c3ccc(C(F)(F)F)cc3)cc2)cn1 [Compound 9]	95.7 nM	550 nM	–	–
O=C(O)CCNC(=O)c1ccc(-c2cc(Cl)cc(CNc3ccc(-c4ccc(F)cc4)cc3)c2)cn1 [Compound M1, 3-(5-(3-chloro-5-(((4′-fluoro-[1,1′-biphenyl]-4-yl)amino)methyl)phenyl)picolinamido)propanoic acid, reference compound]	–	–	> 2700 nM	> 10400 nM
C=C(C)c1ccc(CNc2ccc(-c3ccc(F)cc3)cc2)c(-c2ccc(C(=O)NCCC(=O)O)nc2)c1 [Compound 157, 3-(5-(2-(((4′-fluoro-[1,1′-biphenyl]-4-yl)amino)methyl)-5-(prop-1-en-2-yl)phenyl)picolinamido)propanoic acid]	33.5 nM	113 nM	–	–
O=C(O)CCNC(=O)c1ccc(-c2cc(F)c(F)cc2C(=O)Nc2ccc(-c3ccc(Cl)cc3)cc2)cn1 [Compound 97, 3-(5-(2-((4′-chloro-[1,1′-biphenyl]-4-yl)carbamoyl)-4,5-difluorophenyl)picolinamido)propanoic acid]	57.4 nM	225 nM	–	–
Cc1ccc(-c2ccc(NCc3cc(F)c(F)cc3-c3ccc(C(=O)NCCC(=O)O)nc3)cc2C#N)c(F)c1 [Compound 112, 3-(5-(2-(((2-cyano-2′-fluoro-4′-methyl-[1,1′-biphenyl]-4-yl)amino)methyl)-4,5-difluorophenyl)picolinamido)propanoic acid]	76.5 nM	280 nM	–	–

Continued, values first:

Ki [1, 2]	Ki (human GCGR; [3])	Ki [1, 4]	Ki (human GCGR; [4])	SMILES
48.5 nM	220 nM	–	–	COc1cc(NCc2ccc(Cl)cc2-c2ccc(C(=O)NCCC(=O)O)nc2)ccc1-c1ccc(C(F)(F)F)cc1 [Compound 54, 3-(5-(5-chloro-2-(((2-methoxy-4′-(trifluoromethyl)-[1,1′-biphenyl]-4-yl)amino)methyl)phenyl)picolinamido)propanoic acid]
53 nM	500 nM	–	–	O=C(O)CCNC(=O)c1ccc(-c2cc(Cl)ccc2CNc2ccc(-c3ccc(Cl)cc3)cc2F)cn1 [Compound 12, 3-(5-(5-chloro-2-(((4′-chloro-3-fluoro-[1,1′-biphenyl]-4-yl)amino)methyl)phenyl)picolinamido)propanoic acid]
21.5 nM	17.3 nM	–	–	O=C(O)CCNC(=O)c1ccc(-c2cc(C(F)(F)F)ccc2CNc2ccc(-c3ccc(Cl)cc3Cl)c(Cl)c2)cn1 [Compound 27, 3-(5-(2-(((2,2′,4′-trichloro-[1,1′-biphenyl]-4-yl)amino)methyl)-5-(trifluoromethyl)phenyl)picolinamido)propanoic acid]
24 nM	25 nM	–	–	O=C(O)CCNC(=O)c1ccc(-c2cc(C(F)(F)F)c(Cl)cc2CNc2ccc(-c3ccc(Cl)cc3)c(Cl)c2)cn1 [Compound 78, 3-(5-(4-chloro-2-(((2,4′-dichloro-[1,1′-biphenyl]-4-yl)amino)methyl)-5-(trifluoromethyl)phenyl)picolinamido)propanoic acid]
12.4 nM	23 nM	–	–	O=C(O)CCNC(=O)c1ccc(-c2cc(Cl)ccc2CNc2ccc(-c3ccc(F)c(C(F)(F)F)c3)c(Cl)c2)cn1 [Compound 144, 3-(5-(5-chloro-2-(((2-chloro-4′-fluoro-3′-(trifluoromethyl)-[1,1′-biphenyl]-4-yl)amino)methyl)phenyl)picolinamido)propanoic acid]
104 nM	2000 nM	–	–	O=C(O)CCNC(=O)c1ccc(-c2cc(Cl)ccc2CNc2ccc(-c3ccccc3F)cc2)cn1 [Compound 133, 3-(5-(5-chloro-2-(((2′-fluoro-[1,1′-biphenyl]-4-yl)amino)methyl)phenyl)picolinamido)propanoic acid]
44.3 nM	370 nM	–	–	O=C(O)CCNC(=O)c1ccc(-c2cc(Cl)ccc2CNc2ccc(-c3ccc(F)cc3)c(F)c2)cn1 [Compound 88, 3-(5-(5-chloro-2-(((2,4′-difluoro-[1,1′-biphenyl]-4-yl)amino)methyl)phenyl)picolinamido)propanoic acid]
33.5 nM	78.5 nM	–	–	O=C(O)CCNC(=O)c1ccc(-c2cc(F)c(F)cc2C(=O)Nc2ccc(-c3ccc(Cl)cc3Cl)cc2)cn1 [Compound 94, 3-(5-(2-((2′,4′-dichloro-[1,1′-biphenyl]-4-yl)carbamoyl)-4,5-difluorophenyl)picolinamido)propanoic acid]
53.4 nM	295 nM	–	–	O=C(O)CCNC(=O)c1ccc(-c2cc(Cl)ccc2CNc2ccc(-c3ccc(Cl)c(F)c3)c(F)c2)cn1 [Compound 93, 3-(5-(5-chloro-2-(((4′-chloro-2,3′-difluoro-[1,1′-biphenyl]-4-yl)amino)methyl)phenyl)picolinamido)propanoic acid]
103 nM	495 nM	–	–	O=C(O)CCNC(=O)c1ccc(-c2cc(F)ccc2CNc2ccc(-c3ccc(Cl)c(Cl)c3)c(F)c2)cn1 [Compound 53, 3-(5-(2-(((3′,4′-dichloro-2-fluoro-[1,1′-biphenyl]-4-yl)amino)methyl)-5-fluorophenyl)picolinamido)propanoic acid]
25.1 nM	72.5 nM	–	–	O=C(O)CCNC(=O)c1ccc(-c2cc(C(F)(F)F)ccc2CNc2ccc(-c3ccc(Cl)c(C(F)(F)F)c3)c(Cl)c2)cn1 [Compound 32, 3-(5-(2-(((2,4′-dichloro-3′-(trifluoromethyl)-[1,1′-biphenyl]-4-yl)amino)methyl)-5-(trifluoromethyl)phenyl)picolinamido)propanoic acid]
22.1 nM	19.4 nM	–	–	O=C(O)CCNC(=O)c1ccc(-c2cc(C(F)(F)F)ccc2CNc2ccc(-c3ccc(F)c(C(F)(F)F)c3)c(Cl)c2)cn1 [Compound 31, 3-(5-(2-(((2-chloro-4′-fluoro-3′-(trifluoromethyl)-[1,1′-biphenyl]-4-yl)amino)methyl)-5-(trifluoromethyl)phenyl)picolinamido)propanoic acid]
61.1 nM	425 nM	–	–	O=C(O)CCNC(=O)c1ccc(-c2cc(Cl)ccc2CNc2ccc(-c3cc(F)cc(F)c3)cc2)cn1 [Compound 137, 3-(5-(5-chloro-2-(((3′,5′-difluoro-[1,1′-biphenyl]-4-yl)amino)methyl)phenyl)picolinamido)propanoic acid]
29.1 nM	120 nM	–	–	Cc1cc(-c2ccc(NCc3ccc(Cl)cc3-c3ccc(C(=O)NCCC(=O)O)nc3)cc2Cl)ccc1F [Compound 139, 3-(5-(5-chloro-2-(((2-chloro-4′-fluoro-3′-methyl-[1,1′-biphenyl]-4-yl)amino)methyl)phenyl)picolinamido)propanoic acid]
